# Experimental data from patent US7754713B2, “4-benzimidazol-2-ylpyridazin-3-one derivatives” (Aventis Pharma S.A., priority 2004, dated 2010).
# Columns and labels:
# CDK2/Cyclin E = CDK2/Cyclin E (Homo sapiens, UniProt P24941); test: CDK2/Cyclin E kinase flashplate assay (33P incorporation into biotinylated Rb peptide); format: biochemical; settings: CDK2/Cyclin E 20 nM, ATP 1 μM, Rb peptide 10 μM, 30 minute at 30° C.
# Procedure: Functional Measurements to Ascertain IC50 Values:
# A 96-well streptavidin-coated flashplate is used to assay potency of compounds according to formula (I) against CDK2/Cyclin E kinase. To carry out the assay, biotinylated-Rb peptide substrate (Biotin-[…]-OH) is solubilized at 1 mM in kinase buffer (Hepes 50 mM, NaCl 1 mM, MgCl2 5 mM pH 7.5) as a stock solution conserved at −20° C. in aliquots of 110 μl. The day of the experiment, an aliquot of this solution is thawed and diluted to 14.3 μM in kinase buffer, containing 1 mM dithithreitol (DTT) added in the buffer extemporarily.
# 70 μl of this solution is added in each well of the flashplate in order to achieve a final concentration of 10 μM (100 μl reactionnal volume). […] 10 μl of each of these solutions (or 10 μl of buffer+DTT for controls) are transferred to the testplate wells in order to achieve 10 μM, 3.33 μM, 1.11 μM, 0.37 μM, 0.12 μM, 0.04 μM and 0.01 μM as final concentrations, 1% DMSO (vol/vol). In each well, 10 μl of a solution of a mix of ^33PγATP/ATP are added in order to achieve 1 μM final concentration and a total of 1 μCi. The kinase reaction is initiated by addition of 10 μl of a solution at 200 nM of CDK2/Cyclin E in kinase buffer+DTT (or buffer+DTT for blanks) in order to achieve 20 nM final concentration. After addition of each reagent, the test-plate is shaked. The plates are incubated 30 minute at 30° C. with a shaking at 650 rpm. At the end of the incubation, the plates are washed 3 times with 300 μl of PBS (without calcium and magnesium) per well. The incorporation of ^33P to the peptide is measured by scintillation counting.
IC50 (CDK2/Cyclin E) [µM],melting point,SMILES
0.124,,"COC(=O)c1ccc2nc(-c3cc(-c4ccncc4)n[nH]c3=O)[nH]c2c1 [Example 1, Methyl 2-(3-oxo-6-pyridin-4-yl-2,3-dihydropyridazin-4-yl)-1H-benzimidazole-5-carboxylate]"
0.026,,"O=c1[nH]nc(-c2ccncc2)cc1-c1nc2ccc(Cl)cc2[nH]1 [Example 5, 4-(6-Chloro-1H-benzimidazol-2-yl)-6-pyridin-4-yl-2H-pyridazin-3-one]"
,> 30 °C (dec.),"CN1CCN(CCCNC(=O)c2ccc3nc(-c4cc(-c5ccncc5)n[nH]c4=O)[nH]c3c2)CC1 [Example 9, 2-(3-Oxo-6-pyridin-4-yl-2,3-dihydropyridazin-4-yl)-1H-benzimidazole-5-carboxylic acid [3-(4-methylpiperazin-1-yl)propyl]amide]"
0.214,,"O=c1[nH]nc(-c2ccncc2)cc1-c1nc2ccc(C(F)(F)F)cc2[nH]1 [Example 6, 4-(6-Trifluoromethyl-1H-benzimidazol-2-yl)-6-pyridin-4-yl-2H-pyridazin-3-one]"
